Measured values taken from patent US6313127A, “Heterocyclic compounds useful as pharmaceutical agents” (Zeneca Limited, priority 1996, dated 2001).

What was measured:
oxido-squalene cyclase [1] = test: In vivo test to measure inhibition of oxido-squalene cyclase / cholesterol biosynthesis in the rat; conditions: 2 mg/kg, oral, female rats
Experimental: (b) In vivo Test to Measure Inhibition of Oxido-Squalene Cyclase
The ability of a compound to inhibit oxido-squalene cyclase and/or inhibit cholesterol biosynthesis may be assessed by a routine laboratory procedure carried out in the rat. The test involves administration of the compound to rats on a reversed lighting regimen. Female rats (35-55 g) are housed in reverse lighting conditions (red light from 0200 h-1400 h) for a period of about 2 weeks prior to test. Animals are allowed free access to chow and drinking water throughout this period. At test, animals should weigh 100-140 g. The rats are dosed orally, with the compound (typically 10-50 mg/kg) formulated in a polyethylene glycol/hydroxypropylmethyl cellulose mix. After 1 hour the rats are given […] sodium mevalonate (15 μCi/kg) intraperitoneally. Two hours after administration of the compound the rats are terminated and a piece of liver removed and weighed. The tissue is saponified at 80° C. for 2 hours in an ethaniolic/potassium hydroxide solution (80% w/v aqueous KOH diluted 1:10 with ethanol). Water (2 ml) is added and the mixture extracted with iso-hexane (2×5 ml). The organic extracts are combined, evaporated to dryness under a stream of nitrogen and the residue is dissolved in a mixture of acetonitrile/iso-propanol (300 μl). […] The radio-label content of each fraction is assessed using a radio chemical flow detector. […]

oxido-squalene cyclase [2] = test: In vitro test to measure inhibition of microsomal oxido-squalene cyclase; format: biochemical; conditions: 1 μM; rat liver microsomes
Experimental: (a) In vitro Test to Measure Inhibition of Oxido-squalene Cyclase
This test measures the inhibition of microsomal oxido-squalene cyclase in vitro by compounds at set concentrations in the incubation medium.
Microsomes are prepared from rat liver according to methods known in the art, for example, the method described in published European Patent Application No 324,421 and stored in liquid nitrogen prior to assay. Assay vials are kept at 37° C. throughout the incubation. The microsomes typically contain 15-20 mg of protein per ml of microsomes. For assay, 1 ml of microsomes are diluted by the addition of 722 μl of 50 mM phosphate buffer pH 7.4.
Phosphate buffered Tween 80 (polyoxyethylene sorbitan […]) is prepared by adding 0.1 g Tween 80 to 100 ml of 50 mM phosphate buffer.
A stock solution of oxido-squalene is made up as a solution in ethanol (0.65 mg.ml^-1). 18 μl of radio-labelled oxido-squalene (1 μCi.ml^-1) is evaporated to dryness under a stream of nitrogen and redissolved in 1 ml of ethanol and 1 ml of the stock solution of oxido-squalene is added.
The test compound is dissolved in dimethyl sulphoxide to give a 10^-4 M stock solution. […]
The samples are then placed in a water bath at 80° C. for 2 hours to saponify. […] Reaction rate is measured as the conversion of oxido-squalene to lanosterol, and the effects of test compounds are expressed as an inhibition of this process.

Compound	inhibition of cholesterol biosynthesis (oxido-squalene cyclase [1])	inhibition of oxido-squalene cyclase (conversion of oxido-squalene to lanosterol) (oxido-squalene cyclase [2])
Fc1cc(Br)ccc1CN1CCN(c2ccncc2)CC1 [Example 18, 1-(4-pyridyl)-4-(2-fluoro-4-bromobenzyl)piperazine]	59%	
O=S(=O)(c1ccc(Br)cc1)N1CCN(c2ccncc2)CC1 [Example 25, 1-(4-pyridyl)-4-(4-bromophenylsulphonyl)piperazine]		100%
N#Cc1ccc(S(=O)(=O)Nc2ccc(N3CCN(c4ccncc4)CC3)cc2)cc1 [Example 27, 1-(4-pyridyl)-4-(4-cyanophenylsulphonamidophenyl)piperazine]	70%	
